Measured values from ChEMBL document CHEMBL1153802, “Human plasma-mediated hypoxic activation of indolequinone-based naloxone pro-drugs” (Bioorg Med Chem Lett, 2009).

Tested on: Plasma
Assay: Prodrug stability in human plasma assessed as […] release under normoxic condition after 24 hrs by HPLC analysis
Format: ADME, cell-free

In the case of `C=CCN1CC[C@]23c4c5ccc(OC(=O)N(C)CCN(C)C(=O)OCc6c7c(n(C(=O)NCCOCCOCCNC(=O)OC(C)(C)C)c6C)C(=O)C=C(OC)C7=O)c4O[C@H]2C(=O)CC[C@@]3(O)[C@H]1C5`, the Stability is reported as “Unstable”.
